From patent publication US10306886B2, “Lactam solubility” (Conopco, Inc., priority 2015, dated 2019)

Assay: Lactam solubility in water or water+alcohol (48 hours agitation, filtration, HPLC quantification)
Type: physicochemical
Parameters: key to Solubility Increase vs water alone: fold increase in dissolved lactam relative to water alone
Procedure: Excess solid lactam (˜3 mg) was placed in a Whatman® Mini Uniprep sample vial, fitted with a 0.45 μm nylon filter. Water or water+alcohol (500 μL) was added the mixture shaken and tapped briefly to initially disperse the solid and the mixture then agitated for 48 hours using a plate shaker fitted with a vial holder (see image below). After 48 hours, the solid was removed from the system by pressing down the plunger with integral filter on the vial (see image below). This removes the solid and provides filtered solution within the inner chamber which is then ready for analysis.
The level of lactam dissolved in solution was quantified using HPLC analysis. Samples were analysed on an Agilent 1200® series HPLC fitted with a Thermo Hypersil® Gold C18 column (15×2.1×3 μm), isocratic elution with 60/40 methanol/water (+0.1% Formic Acid), 0.4 mL/min flow rate, using a DAD detector at 285 nm. 4-(4-chlorophenyl)-5-methylene-pyrrol-2-one has a retention time of ˜2.8 minutes.
The absolute level of lactam in solution is measured and reported as an increase in solubility of lactam relative to water alone.

For `C=C1NC(=O)C=C1c1ccc(Cl)cc1` [4-(4-chlorophenyl)-5-methylene-pyrrol-2-one], the “Mean Lactam Level in Solution” value (EtOH 0% in water) was 6.2 ppm, the “Solubility Increase vs water alone” value (EtOH 0% in water) was 1.00 and the “Mean Lactam Level in Solution” value (EtOH 0.5% in water) was 7.9 ppm. The “Solubility Increase vs water alone” value (EtOH 0.5% in water) was 1.27, the “Mean Lactam Level in Solution” value (EtOH 1% in water) was 8.9 ppm and the “Solubility Increase vs water alone” value (EtOH 1% in water) was 1.44. The “Mean Lactam Level in Solution” value (EtOH 2% in water) was 10.7 ppm, the “Solubility Increase vs water alone” value (EtOH 2% in water) was 1.73 and the “Mean Lactam Level in Solution” value (EtOH 5% in water) was 13.4 ppm. The “Solubility Increase vs water alone” value (EtOH 5% in water) was 2.16, the “Mean Lactam Level in Solution” value (EtOH 10% in water) was 18.3 ppm and the “Solubility Increase vs water alone” value (EtOH 10% in water) was 2.95. The “Mean Lactam Level in Solution” value (EtOH 25% in water) was 82.1 ppm, the “Solubility Increase vs water alone” value (EtOH 25% in water) was 13.24 and the “Mean Lactam Level in Solution” value (EtOH 50% in water) was 1800.2 ppm. For the same molecule, the “Solubility Increase vs water alone” value (EtOH 50% in water) was 290.35, the “Mean Lactam Level in Solution” value (Glycerol 0% in water) was 5.7 ppm and the “Solubility Increase vs water alone” value (Glycerol 0% in water) was 1.00. The “Mean Lactam Level in Solution” value (Glycerol 0.5% in water) was 1.7 ppm, the “Solubility Increase vs water alone” value (Glycerol 0.5% in water) was 0.29 and the “Mean Lactam Level in Solution” value (Glycerol 1% in water) was 2.3 ppm. The “Solubility Increase vs water alone” value (Glycerol 1% in water) was 0.41, the “Mean Lactam Level in Solution” value (Glycerol 2% in water) was 3.1 ppm and the “Solubility Increase vs water alone” value (Glycerol 2% in water) was 0.54. The “Mean Lactam Level in Solution” value (Glycerol 5% in water) was 5.2 ppm, the “Solubility Increase vs water alone” value (Glycerol 5% in water) was 0.91 and the “Mean Lactam Level in Solution” value (Glycerol 10% in water) was 9.0 ppm. The “Solubility Increase vs water alone” value (Glycerol 10% in water) was 1.59, the “Mean Lactam Level in Solution” value (Glycerol 25% in water) was 15.8 ppm and the “Solubility Increase vs water alone” value (Glycerol 25% in water) was 2.77. The “Mean Lactam Level in Solution” value (Glycerol 50% in water) was 95.3 ppm, the “Solubility Increase vs water alone” value (Glycerol 50% in water) was 16.72 and the “Mean Lactam Level in Solution” value (MeOH 0% in water) was 6.2 ppm. The “Solubility Increase vs water alone” value (MeOH 0% in water) was 1.00, the “Mean Lactam Level in Solution” value (MeOH 0.5% in water) was 7.5 ppm and the “Solubility Increase vs water alone” value (MeOH 0.5% in water) was 1.20. For the same molecule, the “Mean Lactam Level in Solution” value (MeOH 1% in water) was 9.0 ppm, the “Solubility Increase vs water alone” value (MeOH 1% in water) was 1.45 and the “Mean Lactam Level in Solution” value (MeOH 2% in water) was 8.2 ppm. The “Solubility Increase vs water alone” value (MeOH 2% in water) was 1.32, the “Mean Lactam Level in Solution” value (MeOH 5% in water) was 10.4 ppm and the “Solubility Increase vs water alone” value (MeOH 5% in water) was 1.67. For the same molecule, the “Mean Lactam Level in Solution” value (MeOH 10% in water) was 15.7 ppm, the “Solubility Increase vs water alone” value (MeOH 10% in water) was 2.52 and the “Mean Lactam Level in Solution” value (MeOH 25% in water) was 48.8 ppm. The “Solubility Increase vs water alone” value (MeOH 25% in water) was 7.87, the “Mean Lactam Level in Solution” value (MeOH 50% in water) was 315.6 ppm and the “Solubility Increase vs water alone” value (MeOH 50% in water) was 50.90.
